The results in this text go back to PMC10095357, “Inhibition of Soluble Epoxide Hydrolase Activity by Components of Glycyrrhiza uralensis” (International Journal of Molecular Sciences, 2023).

Assay [1] has as its target T1, Human recombinant sEH (Homo sapiens, UniProt P34913).
T1 construct: purchased Cayman Chemical (Ann Arbor, MI, USA) 10011669
T1 sequence (P34913 1-555): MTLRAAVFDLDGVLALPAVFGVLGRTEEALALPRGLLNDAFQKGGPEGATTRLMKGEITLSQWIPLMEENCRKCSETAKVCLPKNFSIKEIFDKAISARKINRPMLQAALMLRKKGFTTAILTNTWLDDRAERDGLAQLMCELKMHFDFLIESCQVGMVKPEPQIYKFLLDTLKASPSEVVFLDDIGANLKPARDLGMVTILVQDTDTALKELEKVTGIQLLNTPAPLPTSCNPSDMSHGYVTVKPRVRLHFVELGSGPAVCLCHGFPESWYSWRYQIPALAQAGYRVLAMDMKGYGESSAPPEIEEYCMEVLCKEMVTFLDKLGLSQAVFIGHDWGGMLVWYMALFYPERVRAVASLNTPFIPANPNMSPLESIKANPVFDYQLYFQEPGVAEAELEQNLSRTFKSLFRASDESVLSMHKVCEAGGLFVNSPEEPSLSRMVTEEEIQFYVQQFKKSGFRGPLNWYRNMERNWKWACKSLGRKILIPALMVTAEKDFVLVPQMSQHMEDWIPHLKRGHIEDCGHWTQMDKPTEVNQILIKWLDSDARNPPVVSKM
The experiment in a line: sEH enzyme kinetics (Lineweaver–Burk and Dixon plots). In kind it is biochemical. The following applies: for Ki: Dixon plot analysis; for Binding Mode: Lineweaver–Burk plot.

Assay [2] addresses T1, Human recombinant sEH. The experiment in a line: sEH assay (fluorescent substrate hydrolysis, inhibitory activity and IC50). In kind it is biochemical. The note with it: for inhibition at 100 µM: read-out: Inhibitory Activity at 100 μM (%); for IC50: sEH inhibition.
Where [3] appears, read: compound at 100 μM, tested three times.

“Also recorded” adds a separate entry of the source. Like-named read-outs stand apart in the source and are kept apart here.

Take `O=C1C[C@@H](c2ccc(O)cc2)Oc2cc(O)ccc21` [Compound 1, liquiritigenin]: on Human recombinant sEH [1], the Ki came to 63.1 µM and the “Binding Mode” value was “noncompetitive inhibitors; also recorded: non-competitive”. Moreover, on Human recombinant sEH [2], the “sEH inhibitory effect (in words)” value is reported as “moderate inhibitory effects”, the inhibition at 100 µM was found to be 61.5 ± 1.2% and the IC50 was 40.1 ± 1.2 µM.

As to `O=C1C[C@@H](c2ccc(O[C@@H]3O[C@H](CO)[C@@H](O)[C@H](O)[C@H]3O)cc2)Oc2cc(O)ccc21` [Compound 2, liquiritin], the inhibition at 100 µM on Human recombinant sEH [2] (setting [3]) was 46.8 ± 0.8%.

For the compound `O=C(/C=C/c1ccc(O)cc1)c1ccc(O)cc1O` [Compound 4, isoliquiritigenin], on Human recombinant sEH [1], the Ki turned out to be 24.2 µM and the “Binding Mode” value was “Noncompetitive”. In addition, on Human recombinant sEH [2], the IC50 is 17.6 ± 0.6 µM.

As for `O=C(/C=C/c1ccc(O[C@@H]2O[C@H](CO)[C@@H](O)[C@H](O)[C@H]2O)cc1)c1ccc(O)cc1O` [Compound 5, isoliquiritin], at Human recombinant sEH [1], the Ki came to 48.8 µM and the “Binding Mode” value is listed as “Noncompetitive”. Also, on Human recombinant sEH [2] (setting [3]), the inhibition at 100 µM amounted to 80.2 ± 0.3%. In addition, the IC50 on Human recombinant sEH [2] worked out at 25.8 ± 0.2 µM.

Consider `COc1cc(O)ccc1C(=O)/C=C/c1ccc(O)cc1` [Compound 7, 2′-methoxyisoliquiritigenin], for which, on Human recombinant sEH [1], the Ki amounted to 19.8 µM and the “Binding Mode” value was “competitive inhibitors”. Further, the inhibition at 100 µM on Human recombinant sEH [2] (setting [3]) came out at 85.1 ± 0.3%. Besides, the IC50 at Human recombinant sEH [2] worked out at 16.2 ± 0.3 µM.

For the compound `COc1ccc(-c2coc3cc(O[C@@H]4O[C@H](CO)[C@@H](O)[C@H](O)[C@H]4O)ccc3c2=O)cc1` [Compound 8, ononin], on Human recombinant sEH [1], the Ki came to 54.4 µM and the “Binding Mode” value is listed as “competitive inhibitors”. Besides, the inhibition at 100 µM on Human recombinant sEH [2] (setting [3]) came out at 60.7 ± 1.3%. In addition, at Human recombinant sEH [2], the IC50 amounted to 35.7 ± 0.7 µM.

Consider `COc1c(CC=C(C)C)c(O)cc2oc(=O)c3c4ccc(O)cc4oc3c12` [Compound 9, glycyrol], for which, at Human recombinant sEH [1], the Ki amounted to 41.1 µM and the “Binding Mode” value is reported as “noncompetitive inhibitors; also recorded: non-competitive”. The inhibition at 100 µM at Human recombinant sEH [2] (setting [3]) is 69.5 ± 0.5%. Further, the IC50 at Human recombinant sEH [2] is 42.5 ± 1.5 µM.

Turning to `COc1c(CC=C(C)C)c(O)cc2oc(=O)c(-c3ccc(O)cc3O)cc12` [Compound 10, glycycoumarin], at Human recombinant sEH [1], the Ki came out at 2 µM and the “Binding Mode” value is reported as “competitive inhibitors”. Moreover, on Human recombinant sEH [2] (setting [3]), the inhibition at 100 µM was greater than 100%. For the same compound, the “sEH inhibitory effect (in words)” value on Human recombinant sEH [2] (conclusion statement) is “potent effect”. In addition, the IC50 at Human recombinant sEH [2] turned out to be 1.9 ± 0.2 µM.

On to `CC(C)=CCc1cc(-c2coc3cc(O)c(CC=C(C)C)c(O)c3c2=O)cc(O)c1O` [Compound 11, isoangustone A], for which, at Human recombinant sEH [1], the Ki turned out to be 75.6 µM and the “Binding Mode” value is “noncompetitive inhibitors; also recorded: non-competitive”. Moreover, the inhibition at 100 µM on Human recombinant sEH [2] (setting [3]) was determined as 68.4 ± 3.1%. Further, the “sEH inhibitory effect (in words)” value on Human recombinant sEH [2] (conclusion statement) is listed as “moderate inhibitory effects”. Also, the IC50 on Human recombinant sEH [2] turned out to be 85.7 ± 1.2 µM.

Consider `CC1(C)[C@@H](O[C@H]2O[C@H](C(=O)O)[C@@H](O)[C@H](O)[C@H]2O[C@@H]2O[C@H](C(=O)O)[C@@H](O)[C@H](O)[C@H]2O)CC[C@]2(C)[C@H]3C(=O)C=C4[C@@H]5C[C@@](C)(C(=O)O)CC[C@]5(C)CC[C@@]4(C)[C@]3(C)CC[C@@H]12` [Glycyrrhizin, reference compound], for which, on Human recombinant sEH [2] (setting [3]), the inhibition at 100 µM was 18.4%. The “sEH inhibitory effect (in words)” value at Human recombinant sEH [2] (conclusion statement) is reported as “lacked such an effect”.

As to isoliquiritin apioside [Compound 6], the “Binding Mode” value on Human recombinant sEH [1] is on record as “Noncompetitive”. Also, the “Inhibitory Activity at 100 μM (%)” value on Human recombinant sEH [2] (setting [3]) was 79.3 ± 1.4%.

Take liquiritin apioside [Compound 3]: the “Binding Mode” value at Human recombinant sEH [1] is listed as “competitive inhibitors”. Further, the “Inhibitory Activity at 100 μM (%)” value at Human recombinant sEH [2] (setting [3]) amounted to 57.6 ± 1.1%.

Usually Ki stands for the dissociation constant of the complex between target and ligand, obtained from inhibition or displacement. One may read the IC50 as the concentration that gives 50% inhibition.
